Measured values as given in ChEMBL document CHEMBL1124628, “Topically active carbonic anhydrase inhibitors. 1. O-acyl derivatives of 6-hydroxybenzothiazole-2-sulfonamide” (J Med Chem, 1989).

Key:
[1] = In vitro susceptibility to nucleophilic attack by reduced glutathione at 37 degree C and at pH 7.4; assay type: ADME
Oryctolagus cuniculus [2] = organism: Oryctolagus cuniculus; assay: Corneal penetration rate constant (k) for excised intact cornea of albino rabbit; assay type: functional
[3] = Cleavage by corneal esterase at 37 degree C and at pH 7.4; assay type: ADME, tissue-based, Cornea
Carbonic anhydrase 2 [4] = target: T1, Carbonic anhydrase 2 (Homo sapiens, UniProt P00918)
Description: In vitro inhibition of human Carbonic Anhydrase II

Oryctolagus cuniculus [5] = organism: Oryctolagus cuniculus; assay: Corneal penetration rate constant (k) for excised denuded cornea of albino rabbit; assay type: functional
Oryctolagus cuniculus [6] = organism: Oryctolagus cuniculus; assay: Change in intraocular pressure in Albino rabbit when 10% of compound suspension bilaterally instilled in 3 doses of 20, 15 and 15 microL at 5 minute intervals determined by recovery rate assay; assay type: functional, Eye
Oryctolagus cuniculus [7] = organism: Oryctolagus cuniculus; assay: Change in intraocular pressure in Albino rabbit when 5% of compound suspension bilaterally instilled in 3 doses of 20, 15 and 15 microL at 5 minute intervals determined by recovery rate assay; assay type: functional, Eye
Oryctolagus cuniculus [8] = organism: Oryctolagus cuniculus; assay: Change in intraocular pressure in Albino rabbit when 2% of compound suspension instilled in a single dose of 50 microL determined by recovery rate assay
Oryctolagus cuniculus [9] = assay: Maximum decrease in intraocular pressure in Albino rabbit during 5 hours observation period after topical instillation of 1% suspension; assay type: functional, Eye
Oryctolagus cuniculus [10] = assay: Maximum decrease in intraocular pressure in Albino rabbit during 5 hours observation period after topical instillation of 0.5% suspension; assay type: functional, Eye
Carbonic anhydrase 2 [11] = target: T1, Carbonic anhydrase 2; assay: In vitro inhibitory activity against human Carbonic anhydrase II; settings: read-out: I50
Oryctolagus cuniculus [12] = assay: Maximum decrease in intraocular pressure in Albino rabbit during 5 hours observation period after topical instillation of 0.5% suspension in alpha-Chymotrypsin assay; assay type: functional, Eye
Oryctolagus cuniculus [13] = organism: Oryctolagus cuniculus; assay: Change in intraocular pressure in Albino rabbit when 2% suspension of compound bilaterally instilled in a single dose of 50 microL determined by recovery rate assay; assay type: functional, Eye
Oryctolagus cuniculus [14] = assay: Maximum decrease in intraocular pressure in Albino rabbit during 5 hours observation period after topical instillation of 1% suspension in alpha-Chymotrypsin assay; assay type: functional, Eye
Oryctolagus cuniculus [15] = assay: Maximum decrease in intraocular pressure in Albino rabbit during 5 hours observation period after topical instillation of 5% suspension; assay type: functional, Eye
Oryctolagus cuniculus [16] = organism: Oryctolagus cuniculus; assay: % change in intraocular pressure in Albino rabbit when 10% suspension bilaterally instilled in 3 divided doses of 20, 15 and 15 microL at 5 minute intervals determined by recovery rate assay; assay type: functional
Oryctolagus cuniculus [17] = organism: Oryctolagus cuniculus; assay: Change in intraocular pressure in Albino rabbit when 1% suspension of compound bilaterally instilled in a single dose of 50 microL determined by recovery rate assay; assay type: functional, Eye
Oryctolagus cuniculus [18] = assay: Maximum decrease in intraocular pressure in Albino rabbit during 5 hours observation period after topical instillation of 5% suspension in alpha-Chymotrypsin assay; assay type: functional, Eye

Work on `CC(=O)/N=c1/sc(S(N)(=O)=O)nn1C` [METHAZOLAMIDE] yielded a Reaction [1] of 27% and a K (Oryctolagus cuniculus [2]) of 0.0041 h⁻¹.
Work on `COCCOC(C)(C)C(=O)Oc1ccc2nc(S(N)(=O)=O)sc2c1` yielded a half-life [3] of 72 min, an IC50 (Carbonic anhydrase 2 [4]) of 1.4 nM and a K (Oryctolagus cuniculus [5]) of 0.015 h⁻¹. The K (Oryctolagus cuniculus [2]) was 0.0097 h⁻¹.
For `CC(C)COC(=O)Oc1ccc2nc(S(N)(=O)=O)sc2c1`, the Reaction [1] was 50%, the Change (Oryctolagus cuniculus [6]) was -46% and the Change (Oryctolagus cuniculus [7]) was -54%. The half-life [3] was 7 min, the Change (Oryctolagus cuniculus [8]) was -22% and the IC50 (Carbonic anhydrase 2 [4]) was 2.2 nM. The K (Oryctolagus cuniculus [5]) was 0.0212 h⁻¹, the Pressure (Oryctolagus cuniculus [9]) was -6.7 mmHg and the Pressure (Oryctolagus cuniculus [10]) was -5.7 mmHg. The K (Oryctolagus cuniculus [2]) was 0.0812 h⁻¹.
For `CC(C)(C)C(=O)Oc1ccc2nc(S(N)(=O)=O)sc2c1N`, the IC50 (Carbonic anhydrase 2 [11]) was 25 nM.
Molecule `CC(=O)Nc1nnc(S(N)(=O)=O)s1` [ACETAZOLAMIDE] has a Reaction [1] of 3%.
Work on `NS(=O)(=O)c1nc2ccc(OC(=O)Cc3ccccc3)cc2s1` yielded a Change (Oryctolagus cuniculus [6]) of -48%, a Change (Oryctolagus cuniculus [7]) of 4% and a Pressure (Oryctolagus cuniculus [12]) of -2.5 mmHg. The Change (Oryctolagus cuniculus [13]) was 13%, the Pressure (Oryctolagus cuniculus [14]) was -6.8 mmHg and the IC50 (Carbonic anhydrase 2 [11]) was 30 nM.
With `CC(C)(C)OC(=O)Oc1ccc2nc(S(N)(=O)=O)sc2c1` the IC50 (Carbonic anhydrase 2 [4]) was 10 nM.
In the case of `CCOc1ccc2nc(S(N)(=O)=O)sc2c1` [ETHOXZOLAMIDE], the Reaction [1] is reported as 36%.
Work on `CCOC(=O)Oc1ccc2nc(S(N)(=O)=O)sc2c1` yielded a half-life [3] of 19 min, an IC50 (Carbonic anhydrase 2 [4]) of 6.8 nM and a K (Oryctolagus cuniculus [5]) of 0.0145 h⁻¹. The Pressure (Oryctolagus cuniculus [15]) was -5.5 mmHg, the K (Oryctolagus cuniculus [2]) was 0.0402 h⁻¹ and the Change (Oryctolagus cuniculus [16]) was -29%.
Molecule `CCCCCCCCCCCC(=O)Oc1ccc2nc(S(N)(=O)=O)sc2c1` has a Change (Oryctolagus cuniculus [6]) of -25% and an IC50 (Carbonic anhydrase 2 [11]) of 3.1 nM.
With `CCCCCC(=O)Oc1ccc2nc(S(N)(=O)=O)sc2c1` the half-life [3] was 2 min, the IC50 (Carbonic anhydrase 2 [4]) was 4 nM and the K (Oryctolagus cuniculus [5]) was 0.0182 h⁻¹. For the same molecule, the K (Oryctolagus cuniculus [2]) was 0.0152 h⁻¹.
For `CN(C)Cc1ccc(C(=O)Oc2ccc3nc(S(N)(=O)=O)sc3c2)cc1`, the IC50 (Carbonic anhydrase 2 [11]) was 4 nM.
With `COC(C)(C)C(=O)Oc1ccc2nc(S(N)(=O)=O)sc2c1` the half-life [3] was 36 min, the IC50 (Carbonic anhydrase 2 [4]) was 1.2 nM and the K (Oryctolagus cuniculus [5]) was 0.019 h⁻¹. It also gave a K (Oryctolagus cuniculus [2]) of 0.0222 h⁻¹.
In the case of `CCOC(C)(C)C(=O)Oc1ccc2nc(S(N)(=O)=O)sc2c1`, the half-life [3] is reported as 64 min, the IC50 (Carbonic anhydrase 2 [4]) is reported as 1.2 nM and the K (Oryctolagus cuniculus [5]) is reported as 0.0162 h⁻¹. It also gave a K (Oryctolagus cuniculus [2]) of 0.0373 h⁻¹.
For `NS(=O)(=O)c1nc2ccc(OC(=O)C3CCCCC3)cc2s1`, the Reaction [1] was 50%, the Change (Oryctolagus cuniculus [6]) was -34% and the half-life [3] was 2 min. It also gave a Pressure (Oryctolagus cuniculus [12]) of -4.6 mmHg, an IC50 (Carbonic anhydrase 2 [4]) of 6 nM and a Pressure (Oryctolagus cuniculus [14]) of -9.8 mmHg. The K (Oryctolagus cuniculus [5]) was 0.0175 h⁻¹ and the K (Oryctolagus cuniculus [2]) was 0.0712 h⁻¹.
`COCC(=O)Oc1ccc2nc(S(N)(=O)=O)sc2c1` showed an IC50 (Carbonic anhydrase 2 [4]) of 3.5 nM.
`NS(=O)(=O)c1nc2ccc(OC(=O)CC3CCCC3)cc2s1` showed an IC50 (Carbonic anhydrase 2 [11]) of 6 nM.
`CCN(CC)CC1CCC(C(=O)Oc2ccc3nc(S(N)(=O)=O)sc3c2)CC1` (configuration not stated) showed an IC50 (Carbonic anhydrase 2 [4]) of 2.8 nM.
Work on `CC(C)(C)C(=O)Nc1c(OC(=O)C(C)(C)C)ccc2nc(S(N)(=O)=O)sc12` yielded an IC50 (Carbonic anhydrase 2 [4]) of 32 nM.
For `CC(C)C(=O)Oc1ccc2nc(S(N)(=O)=O)sc2c1`, the Reaction [1] was 50%, the Change (Oryctolagus cuniculus [6]) was -30% and the Change (Oryctolagus cuniculus [7]) was -33%. The half-life [3] was 9 min, the Change (Oryctolagus cuniculus [17]) was -38% and the Pressure (Oryctolagus cuniculus [12]) was -9.3 mmHg. The Pressure (Oryctolagus cuniculus [18]) was -6.2 mmHg, the Change (Oryctolagus cuniculus [13]) was -48% and the IC50 (Carbonic anhydrase 2 [4]) was 6.8 nM. The Pressure (Oryctolagus cuniculus [14]) was -6.8 mmHg, the K (Oryctolagus cuniculus [5]) was 0.0162 h⁻¹ and the K (Oryctolagus cuniculus [2]) was 0.045 h⁻¹.
`CN(C)c1ccc(C(=O)Oc2ccc3nc(S(N)(=O)=O)sc3c2)cc1` showed a Change (Oryctolagus cuniculus [6]) of 7% and an IC50 (Carbonic anhydrase 2 [11]) of 60 nM.
In the case of `CCOP(=O)(OCC)Oc1ccc2nc(S(N)(=O)=O)sc2c1`, the Change (Oryctolagus cuniculus [6]) is reported as -22% and the IC50 (Carbonic anhydrase 2 [4]) is reported as 1.8 nM.
In the case of `NS(=O)(=O)c1nc2ccc(OC(=O)/C=C/c3ccccc3)cc2s1`, the IC50 (Carbonic anhydrase 2 [11]) is reported as 15 nM.
With `NS(=O)(=O)c1nc2ccc(O)cc2s1` the Reaction [1] was 27%.
In the case of `Cn1cccc1C(=O)Oc1ccc2nc(S(N)(=O)=O)sc2c1`, the Change (Oryctolagus cuniculus [6]) is reported as -12% and the IC50 (Carbonic anhydrase 2 [4]) is reported as 2.9 nM.
For `CN(C)C(=O)Oc1ccc2nc(S(N)(=O)=O)sc2c1`, the Change (Oryctolagus cuniculus [6]) was -32%, the Change (Oryctolagus cuniculus [7]) was 2% and the IC50 (Carbonic anhydrase 2 [4]) was 1.6 nM.
`NS(=O)(=O)c1nc2cc(O)ccc2s1` showed an IC50 (Carbonic anhydrase 2 [4]) of 5 nM.
In the case of `CCCC(=O)Oc1ccc2nc(S(N)(=O)=O)sc2c1`, the Change (Oryctolagus cuniculus [6]) is reported as -50%, the Change (Oryctolagus cuniculus [7]) is reported as -46% and the half-life [3] is reported as 6 min. It also gave a Change (Oryctolagus cuniculus [17]) of -25%, a Pressure (Oryctolagus cuniculus [12]) of -5.5 mmHg and a Change (Oryctolagus cuniculus [13]) of -30%. It also gave an IC50 (Carbonic anhydrase 2 [4]) of 3.2 nM, a Pressure (Oryctolagus cuniculus [14]) of -6.8 mmHg and a K (Oryctolagus cuniculus [5]) of 0.0202 h⁻¹. The K (Oryctolagus cuniculus [2]) was 0.054 h⁻¹.
`CCOCCOCCOC(C)(C)C(=O)Oc1ccc2nc(S(N)(=O)=O)sc2c1` showed a Change (Oryctolagus cuniculus [6]) of -22%, a Change (Oryctolagus cuniculus [13]) of -21% and an IC50 (Carbonic anhydrase 2 [4]) of 3.2 nM. For the same molecule, the Pressure (Oryctolagus cuniculus [14]) was -9 mmHg.
With `CCCC(=O)Oc1ccc2sc(S(N)(=O)=O)nc2c1` the Change (Oryctolagus cuniculus [6]) was -54% and the IC50 (Carbonic anhydrase 2 [4]) was 4 nM.
`CN(C)OS(=O)(=O)c1ccc2nc(S(N)(=O)=O)sc2c1` showed an IC50 (Carbonic anhydrase 2 [4]) of 1.2 nM.
Work on `CCCCCCCC(=O)Oc1ccc2nc(S(N)(=O)=O)sc2c1` yielded a Change (Oryctolagus cuniculus [6]) of -33%, a Change (Oryctolagus cuniculus [7]) of -29% and a Change (Oryctolagus cuniculus [13]) of -16%. For the same molecule, the Pressure (Oryctolagus cuniculus [14]) was -5 mmHg and the IC50 (Carbonic anhydrase 2 [11]) was 1.6 nM.
With `NS(=O)(=O)c1nc2ccc(OC(=O)c3ccccc3)cc2s1` the Reaction [1] was 50%, the Change (Oryctolagus cuniculus [6]) was -25% and the Change (Oryctolagus cuniculus [7]) was 11%. For the same molecule, the half-life [3] was 30 min, the K (Oryctolagus cuniculus [5]) was 0.0152 h⁻¹ and the IC50 (Carbonic anhydrase 2 [11]) was 8 nM. For the same molecule, the K (Oryctolagus cuniculus [2]) was 0.035 h⁻¹.
With `COc1cccc(OC)c1C(=O)Oc1ccc2nc(S(N)(=O)=O)sc2c1` the IC50 (Carbonic anhydrase 2 [4]) was 4 nM.
`NS(=O)(=O)c1nc2ccc(OC(=O)Cc3ccc(Cl)cc3)cc2s1` gave an IC50 (Carbonic anhydrase 2 [11]) of 10 nM.
`CC(=O)Oc1ccc2nc(S(N)(=O)=O)sc2c1` showed a Change (Oryctolagus cuniculus [6]) of -47%, a Change (Oryctolagus cuniculus [7]) of -42% and a half-life [3] of 22 min. For the same molecule, the Change (Oryctolagus cuniculus [17]) was -10%, the Change (Oryctolagus cuniculus [13]) was -35% and the IC50 (Carbonic anhydrase 2 [4]) was 2 nM. The Pressure (Oryctolagus cuniculus [14]) was -8.8 mmHg, the K (Oryctolagus cuniculus [5]) was 0.0217 h⁻¹ and the K (Oryctolagus cuniculus [2]) was 0.0165 h⁻¹.
Molecule `CC(C)(C)C(=O)Oc1ccc2nc(S(N)(=O)=O)sc2c1` has a Reaction [1] of 50%, a Change (Oryctolagus cuniculus [6]) of -47% and a Change (Oryctolagus cuniculus [7]) of -41%. For the same molecule, the half-life [3] was 38 min, the Change (Oryctolagus cuniculus [17]) was -16% and the Pressure (Oryctolagus cuniculus [12]) was -6.5 mmHg. It also gave a Pressure (Oryctolagus cuniculus [18]) of -9.2 mmHg, a Change (Oryctolagus cuniculus [13]) of -30% and a Pressure (Oryctolagus cuniculus [14]) of -8.2 mmHg.
